Laboratory results reported in PubChem BioAssay AID330 (DTP/NCI, 2004).
Where “and” joins values, the source holds several entries; their conditions need not be identical. Equal entries are not always repeated. Toxic doses and inconclusive results are not listed.

Test system: P388 leukemia ip, CD2F1 mice, survival T/C
Assay: NCI In Vivo Anticancer Drug Screen. Data for tumor model P388 Leukemia (intraperitoneal) in CD2F1 (CDF1) mice
Settings: endpoint: median survival time, higher = longer survival
How it was run: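 Mice carrying the transplanted tumor received test compound or vehicle. Survival was recorded in each group, and the value is the treated-group measurement divided by that of the vehicle-treated control group.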

[1] = dose: 60.0 mg/kg/injection, schedule: Q01DX005 (ip), vehicle: Klucel (hydroxypropylcellulose) (HPC)
[2] = dose: 240.0 mg/kg/injection, schedule: Q01DX005 (ip), vehicle: Klucel (hydroxypropylcellulose) (HPC)
[3] = dose: 50.0 mg/kg/injection, schedule: Q01DX005 (ip), vehicle: saline with Tween-80
[4] = dose: 100.0 mg/kg/injection, schedule: Q01DX005 (ip), vehicle: saline with Tween-80
[5] = dose: 60.0 mg/kg/injection, schedule: Q01DX005 (ip), vehicle: saline with Tween-80
[6] = dose: 120.0 mg/kg/injection, schedule: Q01DX005 (ip), vehicle: saline with Tween-80
[7] = dose: 100.0 mg/kg/injection, schedule: Q01DX009 (ip), vehicle: saline with Tween-80
[8] = dose: 200.0 mg/kg/injection, schedule: Q01DX009 (ip), vehicle: saline with Tween-80
[9] = dose: 100.0 mg/kg/injection, schedule: Q01DX009 (ip), vehicle: Klucel (hydroxypropylcellulose) (HPC)
[10] = dose: 200.0 mg/kg/injection, schedule: Q01DX009 (ip), vehicle: Klucel (hydroxypropylcellulose) (HPC)
[11] = dose: 50.0 mg/kg/injection, schedule: Q01DX009 (ip), vehicle: saline with Tween-80
[12] = dose: 50.0 mg/kg/injection, schedule: Q01DX009 (ip), vehicle: Klucel (hydroxypropylcellulose) (HPC)
[13] = dose: 50.0 mg/kg/injection, schedule: Q01DX005 (ip), vehicle: Klucel (hydroxypropylcellulose) (HPC)
[14] = dose: 100.0 mg/kg/injection, schedule: Q01DX005 (ip), vehicle: Klucel (hydroxypropylcellulose) (HPC)
[15] = dose: 200.0 mg/kg/injection, schedule: Q01DX005 (ip), vehicle: Klucel (hydroxypropylcellulose) (HPC)
[16] = dose: 100.0 mg/kg/injection, schedule: Q04DX003 (ip), vehicle: saline with Tween-80
[17] = dose: 200.0 mg/kg/injection, schedule: Q04DX003 (ip), vehicle: saline with Tween-80
[18] = dose: 400.0 mg/kg/injection, schedule: Q04DX003 (ip), vehicle: saline with Tween-80

CC(CCc1ccc2c(c1)c(=N)c1ccc(N)cc1n2O)CC(C)(C)C (stereo unspecified)
T/C (dose: 1.56 mg/kg/injection, schedule: Q04DX002 (ip), vehicle: distilled water + Tween-80): 102 % of control and 96 % of control | T/C (dose: 3.12 mg/kg/injection, schedule: Q04DX002 (ip), vehicle: distilled water + Tween-80): 106 % of control and 94 % of control | T/C (dose: 6.25 mg/kg/injection, schedule: Q04DX002 (ip), vehicle: distilled water + Tween-80): 100 % of control and 120 % of control | T/C (dose: 12.5 mg/kg/injection, schedule: Q04DX002 (ip), vehicle: distilled water + Tween-80): 102 % of control and 98 % of control (2×)

CCN(C(=O)CCl)C(C)(C)C(SSSC(c1ccc(Cl)cc1)C(C)(C)N(CC)C(=O)CCl)c1ccc(Cl)cc1 (stereo unspecified)
T/C (dose: 50.0 mg/kg/injection, schedule: Q04DX003 (ip), vehicle: saline): 104 % of control | T/C (dose: 100.0 mg/kg/injection, schedule: Q04DX003 (ip), vehicle: saline): 113 % of control | T/C (dose: 200.0 mg/kg/injection, schedule: Q04DX003 (ip), vehicle: saline): 109 % of control

CCOC(=O)N(NC(=O)c1ccccc1)C(C)=O
T/C (dose: 12.5 mg/kg/injection, schedule: Q01DX009 (ip), vehicle: other): 111 % of control | T/C (dose: 25.0 mg/kg/injection, schedule: Q01DX009 (ip), vehicle: other): 109 % of control | T/C (dose: 50.0 mg/kg/injection, schedule: Q01DX009 (ip), vehicle: other): 99 % of control

COC(=O)c1ccc(O)cc1C1(Cl)CC1
T/C [1]: 108 % of control | T/C (dose: 120.0 mg/kg/injection, schedule: Q01DX005 (ip), vehicle: Klucel (hydroxypropylcellulose) (HPC)): 102 % of control | T/C [2]: 100 % of control

CC12CCC(=O)C1C=CC2=O (stereo unspecified)
T/C (dose: 100.0 mg/kg/injection, schedule: Q04DX003 (ip), vehicle: saline + Tween-80 + alcohol): 100 % of control | T/C (dose: 200.0 mg/kg/injection, schedule: Q04DX003 (ip), vehicle: saline + Tween-80 + alcohol): 112 % of control

Cc1ccc(C(=Nc2ccccc2)N=P(c2ccccc2)(c2ccccc2)c2ccccc2)cc1
T/C (dose: 25.0 mg/kg/injection, schedule: Q01DX005 (ip), vehicle: saline with Tween-80): 103 % of control | T/C [3]: 113 % of control and 122 % of control | T/C [4]: 120 % of control

CC1(c2cccc[n+]2Cc2ccc(Cl)c(Cl)c2)OCCO1
T/C (dose: 12.5 mg/kg/injection, schedule: Q01DX005 (ip), vehicle: saline): 100 % of control | T/C (dose: 25.0 mg/kg/injection, schedule: Q01DX005 (ip), vehicle: saline): 99 % of control

CCCCS(=O)(=O)CCC(N)C(=O)O (stereo unspecified)
T/C [5]: 94 % of control | T/C [6]: 90 % of control

Cc1ccc(C(=O)C2CC(Br)C(Br)CC2C(=O)c2ccc(C)cc2)cc1 (stereo unspecified)
T/C [7]: 91 % of control | T/C [8]: 91 % of control | T/C (dose: 400.0 mg/kg/injection, schedule: Q01DX009 (ip), vehicle: saline with Tween-80): 87 % of control

COc1cc2oc3cc(=O)cc4oc(-c5ccccc5)cc(c2c2c1CCC(c1ccccc1)O2)c43 (stereo unspecified)
T/C (dose: 3.25 mg/kg/injection, schedule: Q01DX005 (ip), vehicle: Klucel + Tween-80): 98 % of control | T/C (dose: 6.5 mg/kg/injection, schedule: Q01DX005 (ip), vehicle: Klucel + Tween-80): 99 % of control | T/C (dose: 13.0 mg/kg/injection, schedule: Q01DX005 (ip), vehicle: Klucel + Tween-80): 103 % of control | T/C (dose: 26.0 mg/kg/injection, schedule: Q01DX005 (ip), vehicle: Klucel + Tween-80): 107 % of control

O=c1c2nccnc2nc2n1CCCS2
T/C [9]: 99 % of control | T/C [10]: 100 % of control

O=C(Nc1ccc(C(=O)O)cc1)Nc1nccs1
T/C (dose: 12.5 mg/kg/injection, schedule: Q01DX009 (ip), vehicle: distilled water + Tween-80): 89 % of control | T/C (dose: 25.0 mg/kg/injection, schedule: Q01DX009 (ip), vehicle: distilled water + Tween-80): 118 % of control | T/C (dose: 50.0 mg/kg/injection, schedule: Q01DX009 (ip), vehicle: distilled water + Tween-80): 122 % of control | T/C (dose: 100.0 mg/kg/injection, schedule: Q01DX009 (ip), vehicle: distilled water + Tween-80): 150 % of control | T/C (dose: 200.0 mg/kg/injection, schedule: Q01DX009 (ip), vehicle: distilled water + Tween-80): 163 % of control

O=C1CCC(N2C(=O)CC3(CCCC3)C2=O)C(=O)N1c1ccc([N+](=O)[O-])cc1 (stereo unspecified)
T/C [11]: 106 % of control | T/C [7]: 109 % of control | T/C [8]: 99 % of control

O=[N+]([O-])c1ccc(-c2sc(-c3ccccc3)nc2O)cc1
T/C (dose: 12.5 mg/kg/injection, schedule: Q01DX009 (ip), vehicle: saline with Tween-80): 100 % of control | T/C (dose: 25.0 mg/kg/injection, schedule: Q01DX009 (ip), vehicle: saline with Tween-80): 98 % of control | T/C [11]: 91 % of control and 94 % of control | T/C [8]: 88 % of control

COc1ccc(-c2c(C#N)cnc(C)c2C)c(O)c1OC
T/C (dose: 25.0 mg/kg/injection, schedule: Q01DX009 (ip), vehicle: Klucel (hydroxypropylcellulose) (HPC)): 96 % of control | T/C [12]: 92 % of control | T/C [9]: 96 % of control | T/C [10]: 90 % of control

Cc1cnc(F)nc1F
T/C (dose: 50.0 mg/kg/injection, schedule: Q01DX005 (ip), vehicle: saline): 94 % of control | T/C (dose: 100.0 mg/kg/injection, schedule: Q01DX005 (ip), vehicle: saline): 97 % of control

CCOC(=O)C(NC(C)=O)(C(=O)OCC)C(C)C(O)c1ccc(OC)c(OC)c1O (stereo unspecified)
T/C [12]: 108 % of control | T/C [9]: 103 % of control | T/C [10]: 109 % of control | T/C (dose: 400.0 mg/kg/injection, schedule: Q01DX009 (ip), vehicle: Klucel (hydroxypropylcellulose) (HPC)): 93 % of control

CC(=O)NS(=O)(=O)c1ccc(N)cc1
T/C (dose: 100.0 mg/kg/injection, schedule: Q01DX009 (ip), vehicle: saline sonified): 109 % of control | T/C (dose: 132.0 mg/kg/injection, schedule: Q01DX009 (ip), vehicle: saline with Tween-80): 104 % of control | T/C [8]: 104 % of control | T/C (dose: 300.0 mg/kg/injection, schedule: Q01DX009 (ip), vehicle: saline with Tween-80): 113 % of control | T/C (dose: 400.0 mg/kg/injection, schedule: Q01DX009 (ip), vehicle: saline sonified): 104 % of control

OCN1CCC23c4c5ccc(O)c4OC2C(O)C=CC3C1C5 (stereo unspecified)
T/C [3]: 100 % of control | T/C [4]: 100 % of control | T/C (dose: 200.0 mg/kg/injection, schedule: Q01DX005 (ip), vehicle: saline with Tween-80): 100 % of control

CC(C)(C)N1COC2CCCCC21 (stereo unspecified)
T/C (dose: 15.0 mg/kg/injection, schedule: Q01DX005 (ip), vehicle: Klucel (hydroxypropylcellulose) (HPC)): 106 % of control | T/C (dose: 30.0 mg/kg/injection, schedule: Q01DX005 (ip), vehicle: Klucel (hydroxypropylcellulose) (HPC)): 102 % of control | T/C [1]: 106 % of control and 117 % of control | T/C [2]: 106 % of control

CCCCCCCCCCCCCCCCNC(=S)N=Nc1cc(C(C)C)c(NNC(=S)NCCCCCCCCCCCCCCCC)cc1C
T/C [13]: 92 % of control | T/C [14]: 99 % of control | T/C [15]: 97 % of control

CCCCCCN1CCS(=O)(=O)CC1
T/C [12]: 91 % of control | T/C [9]: 94 % of control | T/C [10]: 90 % of control

CC12C=CC(O1)C1C(=O)OC(=O)C12 (stereo unspecified)
T/C [5]: 101 % of control | T/C [6]: 90 % of control

CCOP(=O)(Nc1ccc2c(c1)Cc1c-2cc(Cl)c(NC(C)=O)c1Cl)OCC
T/C [13]: 95 % of control | T/C [14]: 97 % of control | T/C [15]: 97 % of control

O=C(N/N=C/c1cc(Cl)cc(Cl)c1[O-])c1ccccc1.O=C(N/N=C/c1cc(Cl)cc(Cl)c1[O-])c1ccccc1.[Zn+2]
T/C (dose: 100.0 mg/kg/injection, schedule: Q01DX001 (ip), vehicle: saline with Tween-80): 92 % of control | T/C (dose: 200.0 mg/kg/injection, schedule: Q01DX001 (ip), vehicle: saline with Tween-80): 94 % of control | T/C (dose: 400.0 mg/kg/injection, schedule: Q01DX001 (ip), vehicle: saline with Tween-80): 92 % of control

O=C(CC(=O)c1ccc(Cl)cc1)c1ccc(Cl)cc1
T/C (dose: 50.0 mg/kg/injection, schedule: Q04DX003 (ip), vehicle: saline with Tween-80): 100 % of control | T/C [16]: 100 % of control | T/C [17]: 98 % of control | T/C [18]: 93 % of control

C=CCn1nc(-c2ccccc2)c(-c2ccccc2)n1
T/C [16]: 98 % of control | T/C [17]: 95 % of control | T/C [18]: 89 % of control
